Test results published in patent US20250163066A1, “PROTACs of MALT1” (TEGID THERAPEUTICS, INC., priority 2022, published 2025).

The compounds below were run against MALT1 (Homo sapiens (Human), UniProt Q9UDY8) (assay: MALT1 enzymatic activity inhibition (fluorescence, Ac-LRSR-AMC substrate)). Settings: recombinant MALT1 1.5 ng/μl, Ac-LRSR-AMC 1 μM.
Assay type: biochemical
Outline: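 Recombinant human MALT1 (1.5 ng/μl final) preincubated 10 min at rt with compounds in 50 mM HEPES pH 7.2-7.4, 100 mM NaCl, 900 mM sodium citrate, 10 mM DTT; 1 μM Ac-LRSR-AMC then added. AMC fluorescence read at start and after 30 min 37 °C plus 30 min rt; difference gives signal, % inhibition fitted to IC50.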

MALT1, sequence (Q9UDY8 whole entry): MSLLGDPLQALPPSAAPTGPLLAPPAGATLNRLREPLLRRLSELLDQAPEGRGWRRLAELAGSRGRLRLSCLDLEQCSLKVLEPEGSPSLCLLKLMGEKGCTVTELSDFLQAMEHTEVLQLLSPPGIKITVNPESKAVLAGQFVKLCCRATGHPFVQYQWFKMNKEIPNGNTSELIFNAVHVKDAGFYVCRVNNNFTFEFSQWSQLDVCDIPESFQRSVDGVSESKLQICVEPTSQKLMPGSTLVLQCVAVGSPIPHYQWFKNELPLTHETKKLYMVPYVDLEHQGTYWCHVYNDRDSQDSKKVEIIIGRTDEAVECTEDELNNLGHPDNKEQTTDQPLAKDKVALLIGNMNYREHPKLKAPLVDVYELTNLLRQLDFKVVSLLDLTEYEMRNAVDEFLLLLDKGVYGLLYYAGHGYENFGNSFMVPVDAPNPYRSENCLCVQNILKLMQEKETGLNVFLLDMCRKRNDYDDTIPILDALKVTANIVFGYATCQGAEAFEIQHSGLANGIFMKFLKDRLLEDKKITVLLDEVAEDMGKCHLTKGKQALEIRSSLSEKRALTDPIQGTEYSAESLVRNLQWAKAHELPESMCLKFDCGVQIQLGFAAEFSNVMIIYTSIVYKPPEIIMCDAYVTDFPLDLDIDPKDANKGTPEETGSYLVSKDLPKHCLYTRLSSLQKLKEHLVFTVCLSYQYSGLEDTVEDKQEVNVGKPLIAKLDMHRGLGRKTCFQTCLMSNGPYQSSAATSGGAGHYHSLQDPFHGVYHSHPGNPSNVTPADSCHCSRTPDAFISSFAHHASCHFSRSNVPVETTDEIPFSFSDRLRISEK

EC50	Structure (SMILES)
≤ 0.2 µM	Cc1cc(NC(=O)Nc2cnc3ccnn3c2C2CCC2)cnc1-c1noc(CCCCCC(=O)N2CCN(c3ccc4c(c3)CN(C3CCC(=O)NC3=O)C4=O)CC2)n1 (centres unmarked) [Compound 114, 1-(7-cyclobutylpyrazolo[1,5-a]pyrimidin-6-yl)-3-[6-[5-[6-[4-[2-(2,6-dioxo-3-piperidyl)-1-oxo-isoindolin-5-yl]piperazin-1-yl]-6-oxo-hexyl]-1,2,4-oxadiazol-3-yl]-5-methyl-3-pyridyl]urea]
> 5 µM	Cc1nn(CCCCC(=O)N2CCN(c3ccc4c(c3)CN(C3CCC(=O)NC3=O)C4=O)CC2)cc1NC(=O)Nc1cnc2ccnn2c1C(C)C (centres unmarked) [Compound 164, 1-[1-[5-[4-[2-(2,6-dioxo-3-piperidyl)-1-oxo-isoindolin-5-yl]piperazin-1-yl]-5-oxo-pentyl]-3-methyl-pyrazol-4-yl]-3-(7-isopropylpyrazolo[1,5-a]pyrimidin-6-yl)urea]
≤ 0.2 µM	Cc1cc2ncc(NC(=O)Nc3cnc(-c4noc(CCCCCC(=O)N5CCN(c6ccc7c(c6)CN(C6CCC(=O)NC6=O)C7=O)CC5)n4)c(C)c3)c(C3CCCO3)n2n1 (centres unmarked) [Compound 67, 1-[6-[5-[6-[4-[2-(2,6-dioxo-3-piperidyl)-1-oxo-isoindolin-5-yl]piperazin-1-yl]-6-oxo-hexyl]-1,2,4-oxadiazol-3-yl]-5-methyl-3-pyridyl]-3-(2-methyl-7-tetrahydrofuran-2-yl-pyrazolo[1,5-a]pyrimidin-6-yl)urea]
≤ 0.2 µM	O=C1CCC(N2Cc3cc(N4CCN(CCCCCc5nc(-c6ncc(NC(=O)Nc7cnc8ccnn8c7C7CCCC7)cc6F)no5)CC4)ccc3C2=O)C(=O)N1 (centres unmarked) [Compound 97, 1-(7-cyclopentylpyrazolo[1,5-a]pyrimidin-6-yl)-3-[6-[5-[5-[4-[2-(2,6-dioxo-3-piperidyl)-1-oxo-isoindolin-5-yl]piperazin-1-yl]pentyl]-1,2,4-oxadiazol-3-yl]-5-fluoro-3-pyridyl]urea]
> 5 µM	Cc1cc(NC(=O)Nc2cnc3nccn3c2C2CCCC2)cnc1-c1noc(CCCCCC(=O)N2CCN(c3ccc4c(c3)CN(C3CCC(=O)NC3=O)C4=O)CC2)n1 (centres unmarked) [Compound 9, 1-(5-cyclopentylimidazo[1,2-a]pyrimidin-6-yl)-3-[6-[5-[6-[4-[2-(2,6-dioxo-3-piperidyl)-1-oxo-isoindolin-5-yl]piperazin-1-yl]-6-oxo-hexyl]-1,2,4-oxadiazol-3-yl]-5-methyl-3-pyridyl]urea]
≤ 0.2 µM	CC(C)(C)C(=O)OCN1C(=O)CCC(N2Cc3cc(N4CCN(C(=O)CCCCCc5nc(-c6ncc(NC(=O)Nc7cnc8ccnn8c7C7CCCC7)cc6Cl)no5)CC4)ccc3C2=O)C1=O (centres unmarked) [Compound 70, [3-[5-[4-[6-[3-[3-chloro-5-[(7-cyclopentylpyrazolo[1,5-a]pyrimidin-6-yl)carbamoylamino]-2-pyridyl]-1,2,4-oxadiazol-5-yl]hexanoyl]piperazin-1-yl]-1-oxo-isoindolin-2-yl]-2,6-dioxo-1-piperidyl]methyl 2,2-dimethylpropanoate]
1 to 5 µM	O=C(CCOCCOCCN1CCN(c2ccc3c(c2)CN(C2CCC(=O)NC2=O)C3=O)CC1)NCCOc1ccc(Cl)cc1NC(=O)Nc1cnc2ccnn2c1C1CCCC1 (centres unmarked) [Compound 49, N-[2-[4-chloro-2-[(7-cyclopentylpyrazolo[1,5-a]pyrimidin-6-yl)carbamoylamino]phenoxy]ethyl]-3-[2-[2-[4-[2-(2,6-dioxo-3-piperidyl)-1-oxo-isoindolin-5-yl]piperazin-1-yl]ethoxy]ethoxy]propanamide]
≤ 0.2 µM	CC(C)c1c(NC(=O)Nc2cnc(-c3noc(CCCCC(=O)N4CCN(c5ccc6c(c5)CN(C5CCC(=O)NC5=O)C6=O)CC4)n3)c(Cl)c2)cnc2ccnn12 (centres unmarked) [Compound 139, 1-[5-chloro-6-[5-[5-[4-[2-(2,6-dioxo-3-piperidyl)-1-oxo-isoindolin-5-yl]piperazin-1-yl]-5-oxo-pentyl]-1,2,4-oxadiazol-3-yl]-3-pyridyl]-3-(7-isopropylpyrazolo[1,5-a]pyrimidin-6-yl)urea]
≤ 0.2 µM	O=C1CCC(N2Cc3cc(NC(=O)CCCc4nc(-c5ncc(NC(=O)Nc6cnc7ccnn7c6C6CCCC6)cc5Cl)no4)ccc3C2=O)C(=O)N1 (centres unmarked) [Compound 80, 4-[3-[3-chloro-5-[(7-cyclopentylpyrazolo[1,5-a]pyrimidin-6-yl)carbamoylamino]-2-pyridyl]-1,2,4-oxadiazol-5-yl]-N-[2-(2,6-dioxo-3-piperidyl)-1-oxo-isoindolin-5-yl]butanamide]
1 to 5 µM	Cc1cc(NC(=O)Nc2cnc3c(Cl)cnn3c2C2CCCC2)cnc1-c1noc(CCCCN2CCN(c3ccc4c(c3)CN(C3CCC(=O)NC3=O)C4=O)CC2)n1 (centres unmarked) [Compound 20, 1-(3-chloro-7-cyclopentyl-pyrazolo[1,5-a]pyrimidin-6-yl)-3-[6-[5-[4-[4-[2-(2,6-dioxo-3-piperidyl)-1-oxo-isoindolin-5-yl]piperazin-1-yl]butyl]-1,2,4-oxadiazol-3-yl]-5-methyl-3-pyridyl]urea]
0.5 to 1 µM	Cc1cc(NC(=O)Nc2cnc3ccnn3c2C2CCCC2)cnc1-c1cn(CCCCCCC(=O)N2CCN(c3ccc4c(c3)CN(C3CCC(=O)NC3=O)C4=O)CC2)nn1 (centres unmarked) [Compound 6, 1-(7-cyclopentylpyrazolo[1,5-a]pyrimidin-6-yl)-3-[6-[1-[7-[4-[2-(2,6-dioxo-3-piperidyl)-1-oxo-isoindolin-5-yl]piperazin-1-yl]-7-oxo-heptyl]triazol-4-yl]-5-methyl-3-pyridyl]urea]
1 to 5 µM	O=C(CCOCCOCCN1CCN(c2ccc3c(c2)CN(C2CCC(=O)NC2=O)C3=O)CC1)NCCOc1ncc(Cl)cc1NC(=O)Nc1cnc2ccnn2c1C1CCCO1 (centres unmarked) [Compound 32, N-[2-[[5-chloro-3-[(7-tetrahydrofuran-2-ylpyrazolo[1,5-a]pyrimidin-6-yl)carbamoylamino]-2-pyridyl]oxy]ethyl]-3-[2-[2-[4-[2-(2,6-dioxo-3-piperidyl)-1-oxo-isoindolin-5-yl]piperazin-1-yl]ethoxy]ethoxy]propanamide]
> 5 µM	CCCCOP(=O)(OCCCC)OCN1C(=O)CCC(N2Cc3cc(N4CCN(C(=O)CCCCCc5nc(-c6ncc(NC(=O)Nc7cnc8ccnn8c7C7CCCC7)cc6Cl)no5)CC4)ccc3C2=O)C1=O (centres unmarked) [Compound 103, dibutyl [3-[5-[4-[6-[3-[3-chloro-5-[(7-cyclopentylpyrazolo[1,5-a]pyrimidin-6-yl)carbamoylamino]-2-pyridyl]-1,2,4-oxadiazol-5-yl]hexanoyl]piperazin-1-yl]-1-oxo-isoindolin-2-yl]-2,6-dioxo-1-piperidyl]methyl phosphate]
≤ 0.2 µM	CC(C)c1c(NC(=O)Nc2cnc(-c3noc(CCCCC(=O)N4CCN(c5ccc6c(c5)CN(C5CCC(=O)N(COC(=O)C(C)(C)C)C5=O)C6=O)CC4)n3)c(Cl)c2)cnc2ccnn12 (centres unmarked) [Compound 138, [3-[5-[4-[5-[3-[3-chloro-5-[(7-isopropylpyrazolo[1,5-a]pyrimidin-6-yl)carbamoylamino]-2-pyridyl]-1,2,4-oxadiazol-5-yl]pentanoyl]piperazin-1-yl]-1-oxo-isoindolin-2-yl]-2,6-dioxo-1-piperidyl]methyl 2,2-dimethylpropanoate]
≤ 0.2 µM	O=C1CCC(N2Cc3cc(N4CCN(C(=O)CCCCc5nc(-c6ncc(NC(=O)Nc7cnc8ccnn8c7C7CCCCC7)cc6Cl)no5)CC4)ccc3C2=O)C(=O)N1 (centres unmarked) [Compound 98, 1-[5-chloro-6-[5-[5-[4-[2-(2,6-dioxo-3-piperidyl)-1-oxo-isoindolin-5-yl]piperazin-1-yl]-5-oxo-pentyl]-1,2,4-oxadiazol-3-yl]-3-pyridyl]-3-(7-cyclohexylpyrazolo[1,5-a]pyrimidin-6-yl)urea]
0.5 to 1 µM	O=C(CCOCCN1CCN(c2ccc3c(c2)CN(C2CCC(=O)NC2=O)C3=O)CC1)NCCOc1ncc(Cl)cc1NC(=O)Nc1cnc2ccnn2c1C1CCOC1 (centres unmarked) [Compound 39, N-[2-[[5-chloro-3-[(7-tetrahydrofuran-3-ylpyrazolo[1,5-a]pyrimidin-6-yl)carbamoylamino]-2-pyridyl]oxy]ethyl]-3-[2-[4-[2-(2,6-dioxo-3-piperidyl)-1-oxo-isoindolin-5-yl]piperazin-1-yl]ethoxy]propanamide]
≤ 0.2 µM	CCCCOP(=O)(OCCCC)OCN1C(=O)CCC(N2Cc3cc(N4CCN(C(=O)CCCCc5nc(-c6ncc(NC(=O)Nc7cnc8ccnn8c7C(C)C)cc6C)no5)CC4)ccc3C2=O)C1=O (centres unmarked) [Compound 147, dibutyl [3-[5-[4-[5-[3-[5-[(7-isopropylpyrazolo[1,5-a]pyrimidin-6-yl)carbamoylamino]-3-methyl-2-pyridyl]-1,2,4-oxadiazol-5-yl]pentanoyl]piperazin-1-yl]-1-oxo-isoindolin-2-yl]-2,6-dioxo-1-piperidyl]methyl phosphate]
0.2 to 0.5 µM	Cc1cc(NC(=O)Nc2cnc3ccnn3c2C(C)C)cnc1-c1nnc(CCCCCC(=O)N2CCN(c3ccc4c(c3)CN(C3CCC(=O)NC3=O)C4=O)CC2)s1 (centres unmarked) [Compound 153, 1-[6-[5-[6-[4-[2-(2,6-dioxo-3-piperidyl)-1-oxo-isoindolin-5-yl]piperazin-1-yl]-6-oxo-hexyl]-1,3,4-thiadiazol-2-yl]-5-methyl-3-pyridyl]-3-(7-isopropylpyrazolo[1,5-a]pyrimidin-6-yl)urea]
≤ 0.2 µM	O=C1CCC(N2Cc3cc(N4CCN(CCCCCc5nc(-c6ncc(NC(=O)Nc7cnc8ccnn8c7C7CC7)cc6Cl)no5)CC4)ccc3C2=O)C(=O)N1 (centres unmarked) [Compound 161, 1-[5-chloro-6-[5-[5-[4-[2-(2,6-dioxo-3-piperidyl)-1-oxo-isoindolin-5-yl]piperazin-1-yl]pentyl]-1,2,4-oxadiazol-3-yl]-3-pyridyl]-3-(7-cyclopropylpyrazolo[1,5-a]pyrimidin-6-yl)urea]
> 5 µM	O=C(CCOCCN1CCN(c2ccc3c(c2)CN(C2CCC(=O)NC2=O)C3=O)CC1)NCCOc1ncc(Cl)cc1NC(=O)Nc1cnc2ncnn2c1C1CCCCC1 (centres unmarked) [Compound 51, N-[2-[[5-chloro-3-[(7-cyclohexyl-[1,2,4]triazolo[1,5-a]pyrimidin-6-yl)carbamoylamino]-2-pyridyl]oxy]ethyl]-3-[2-[4-[2-(2,6-dioxo-3-piperidyl)-1-oxo-isoindolin-5-yl]piperazin-1-yl]ethoxy]propanamide]
